From patent US12708620B2, “Prodrugs and medical uses thereof” (priority 2018, dated 2026)
“Also recorded” adds a separate entry of the source.

Experiments:
[1] = test system: NCI-H1650 tumor xenograft; assay: lung cancer (NSCLC) xenograft model; assay type: in vivo, BALB/c Nude Mice
Experimental: (§1) All animal models were established as xenograft model in BALB/c Nude Mice (6-8 weeks old, 17-23 grams, maintained in standard conditions and diet), following approved IACUC (Institutional Animal Care and Use Committees) protocols. Cpd.11 Ms was formulated using 2% dimethyl sulfoxide (DMSO in water for injection, starting from a Cpd.11 Ms main preparation (100-60 mg/ml in 2% DMSO in water for injection).
(§2) After tumor cell inoculation, the animals were checked daily for morbidity and mortality. Before commencement of treatment all animals were weighed and the tumor volumes were measured using a caliper. The treatments were started when the mean tumor size reached approx. 250 mm^3. […] At the time of routine monitoring, the animals were checked for any effects of tumor growth and treatments on normal behavior such as mobility, visual estimation of food and water consumption, body weight gain/loss (body weights were measured daily during the 5-day treatment and thrice weekly after treatment), eye/hair matting and any other abnormal effect. Death and observed clinical signs were recorded on the basis of the numbers of animals within each subset. […] The surrogate endpoint for survival was calculated and indicated as TVx4 (initial tumor volume times 4). […] All data were analyzed in SPSS (Statistical Product and Service Solutions) version 18.0 (IBM, Armonk, NY, U.S.). […]

PANC-1 tumor xenograft = assay: pancreatic cancer (PDAC) xenograft model; assay type: in vivo, BALB/c Nude Mice; conditions: PANC-1 xenograft; for Anti-tumor effect: 600 mg/kg IP, hypoxic status confirmed, methanesulfonate, 600 mg/kg
Experimental: as §1
After tumor cell inoculation, the animals were checked daily for morbidity and mortality. Before commencement of treatment all animals were weighed and the tumor volumes were measured using a caliper. The treatments were started when the mean tumor size reached approx. 250 mm^3. Each treated/control group contained 10 mice that were randomly assigned and injected daily for 5 days. The date of tumor cell inoculation was denoted as day 0 (thus injections were performed at day 1, 2, 3, 4, and 5). At the time of routine monitoring, the animals were checked for any effects of tumor growth and treatments on normal behavior such as mobility, visual estimation of food and water consumption, body weight gain/loss (body weights were measured daily during the 5-day treatment and thrice weekly after treatment), eye/hair matting and any other abnormal effect. Death and observed clinical signs were recorded on the basis of the numbers of animals within each subset. Tumor volumes were measured daily during the 5-day treatment and thrice weekly after treatment in two dimensions using a caliper, and the volume was expressed in mm3 using the formula: V=0.5 a×b2 where a and b are the long and short diameters of the tumor, respectively. The entire procedures of dosing as well as tumor and body weight measurement were conducted in a Laminar Flow Cabinet. Individual mice were euthanized by cervical dislocation when the tumor size reached 1400-1600 mm3. The surrogate endpoint for survival was calculated and indicated as TVx4 (initial tumor volume times 4). Statistical analysis of difference in tumor volume among the groups was conducted at the end of experiment using Independent-Samples T Test. All data were analyzed in SPSS (Statistical Product and Service Solutions) version 18.0 (IBM, Armonk, NY, U.S.). P-values were rounded to three decimal places, with the exception that raw P-values less than 0.001 were stated as P<0.001. All tests were two-sided. P<0.05 was considered to be statistically significant.
For the MDA-MB-436 tumor (ATCC: HTB-130; Passage: P4) cells were maintained in vitro as a monolayer culture in L-15 medium supplemented with 10% heat inactivated fetal bovine serum at 37° C. in an atmosphere of 100% air. […] The cells growing in an exponential growth phase were harvested and counted for tumor inoculation. […]

[2] = stability to gamma irradiation sterilization; conditions: powder filled vial sterilized under gamma irradiation
SW1990 tumor xenograft = assay: pancreatic cancer xenograft model; assay type: in vivo, BALB/c Nude Mice; conditions: 600 mg/kg IP, hypoxic status absent, methanesulfonate
[3] = test system: pH2AX (Histone H2A.X, Phospho S139) in DMS 114 xenograft; assay: DNA damage by pH2AX staining with pimonidazole colocalization; assay type: in vivo, BALB/c Nude Mice; conditions: 6 hours post single 600 mg/kg
Experimental: To evaluate the impact of Cpd.11 Ms treatment on the induction of DNA damage, histological analysis of pH2AX staining and investigated colocalization of pH2AX and pimonidazole staining was performed in the small cell lung cancer model, DMS 114. DNA damage was assessed at 6 hours post a single administration of Cpd.11 Ms at 600 mg/kg. Pimonidazole Hydrochloride and pH2AX (Histone H2A.X, Phospho S139) antibodies are commercially available (Anti-Pimonidazole Hydrochloride, HP FITC Mab-1, HPI Hypoxyprobe Inc; Anti-Histone H2A.X (Phospho S139) antibody [EP854 (2) Y] ChIP Grade, ab81299, Abcam). From each xenograft sample, 3 non-sequential, 5 μm section levels with 50 μm spacing between each level were obtained. From each level, two or three serial sections were produced and collected on two or three slides depending upon the staining required: i) H&E and Pimonidazole or ii) H&E, Pimonidazole and pH2AX. Sections were then dried overnight at ~37° C. prior to staining. The H&Es were performed on a Leica ST4040 staining platform using harris haematoxylin and 1% eosin. Following antigen retrieval and subsequent protein blocking, the pH2AX antibody was incubated on the study tissue sections at a concentration of 1:48000 for 60 minutes. Following quenching of endogenous Horse Radish Peroxidase (HRP) activity using 3% hydrogen peroxide (aqueous), binding of pH2AX was visualised using a polymer based HRP driven detection system and ImmPACT DAB chromogen giving a brown reaction product at the site of antibody binding. A haematoxylin nuclear counterstain was then applied to the tissue sections. The Pimonidazole (FITC conjugated) antibody was incubated on the study tissue sections at a concentration of 1:5000 for 60 minutes. Following quenching of endogenous Horse Radish Peroxidase (HRP) activity using 3% hydrogen peroxide (aqueous), binding of Pimonidazole was visualised using an HRP conjugated rabbit anti-FITC secondary antibody (HPI Hypoxyprobe Inc, anti-FITC-HRP) and ImmPACT DAB chromogen giving a brown reaction product at the site of antibody binding. […]

DMS 114 tumor xenograft = assay: lung cancer (SCLC) xenograft model; assay type: in vivo, BALB/c Nude Mice; conditions: DMS 114 xenograft; 600 mg/kg IP; hypoxic status confirmed
Experimental: as §1, §2

For `CCN1CCN(C(=O)c2cc(N(CCBr)CCOS(C)(=O)=O)c(S(C)(=O)=O)cc2[N+](=O)[O-])CC1.CS(=O)(=O)O` [Cpd.11 Ms, 4-(5-((2-bromoethyl) (2-((methylsulfonyl)oxy)ethyl)amino)-4-(methylsulfonyl)-2-nitrobenzoyl)-1-ethylpiperazin-1-ium methanesulfonate], the Anti-tumor effect ([1]; 600 mg/kg IP, hypoxic status confirmed) was “Clear impact,”, the “median surrogate survival index” value ([1]; single treatment cycle) was “significant effect” and the Anti-tumor effect (PANC-1 tumor xenograft; single treatment cycle, listed as Cpd.11Ms) was “Clear impact,”. For the same compound, the Anti-tumor effect (PANC-1 tumor xenograft; single treatment cycle) was “significant tumour growth retardation”, the body weight loss (PANC-1 tumor xenograft; IP) was “without major body weight loss” and the “increase in median surrogate survival index” value (PANC-1 tumor xenograft; single treatment cycle, P=0.0018) was “approx. 50%”. For the same compound, the “stability to sterilizing conditions” value [2] was “sufficiently stable”, the Anti-tumor effect (SW1990 tumor xenograft; listed as Cpd.11Ms) was “No impact” and the Anti-tumor effect (SW1990 tumor xenograft) was “not observed”. The “DNA damage (pH2AX) in normoxic areas, treated vs vehicle treated animals” value [3] was “not statistically significantly different”, the “DNA damage (pH2AX), hypoxic (pimonidazole positive) vs normoxic (pimonidazole negative) areas in treated animals” value ([3]; P=0.023, methanesulfonate, 600 mg/kg) was “significantly higher DNA damage; also recorded: mostly detected in the hypoxic areas” and the “DNA damage (pH2AX) in hypoxic (pimonidazole positive) areas, treated vs vehicle treated animals” value ([3]; P=0.038) was “significant increase in DNA damage”. For the same compound, the Anti-tumor effect (DMS 114 tumor xenograft) was “Clear impact,”.
